{"source": "patent US20020019420A1", "about": "“Methods and compositions for treating gastric disorders using optically pure (+)-pantoprazole” (Sepracor Inc., priority 1993, published 2002)", "key": {"[1]": {"test_system": "endogenous acid secretion", "test": "reduction of endogenous acid secretion in pylorus-ligated rats", "format": "in vivo, rat", "description": "This may increase pantoprazole's selectivity for the acid secreting parietal cells, where low pH conditions exist in the intracellular canaliculi. In intact animals, pantoprazole is active in inhibiting gastric acid secretion in both rats and dogs. Specifically, the intravenous and oral doses required to reduce endogenous acid secretion in pylorus-ligated rats by 50% are in the 1-3 μmole/kg range. […] Racemic pantoprazole is also effective at doses less than 5 μmole/kg in inhibiting exogenously stimulated acid. secretion induced by a variety of agonists, indicating general activity of the drug in inhibiting acid secretion."}, "[2]": {"test": "acute toxicity LD50 in mice", "format": "in vivo"}, "[3]": {"settings": "patients with duodenal ulcers, after four weeks of 20 to 80 mg per day; cited from earlier work"}, "[4]": {"settings": "rats, two year study; cited from earlier work"}, "[5]": {"settings": "neutral and moderately acidic conditions; cited from earlier work"}, "[6]": {"test_system": "endogenous acid secretion", "settings": "pylorus-ligated rats, cited from earlier work"}, "[7]": {"test_system": "exogenously stimulated acid secretion", "settings": "variety of agonists; cited from earlier work"}, "[8]": {"test_system": "hepatic drug metabolizing enzyme systems", "settings": "intact rats and rat microsomal enzyme preparations; cited from earlier work"}, "[9]": {"settings": "humans, short-term administration; cited from earlier work"}, "[10]": {"settings": "rat, cited from earlier work"}, "[11]": {"settings": "cited from earlier work"}, "[12]": {"settings": "weak acid; cited from earlier work"}, "beta-adrenergic": {"test_system": "beta-adrenergic", "settings": "L-form versus D-enantiomer; cited from earlier work"}}, "note": "Like-named read-outs stand apart in the source and are kept apart here.", "data": [{"smiles": "COc1ccnc(C[S+]([O-])c2nc3ccc(OC(F)F)cc3[nH]2)c1OC", "note": "(racemic) [racemic pantoprazole]", "values": [{"measurement": "calculated oral/intravenous (p.o./i.v.) ratio of the 50% doses", "setting": "[1]", "value": "approximately 2"}, {"measurement": "p.o./i.v. LD50 ratio", "setting": "[2]", "value": "approximately 2"}, {"measurement": "ulcer healing", "setting": "[3]", "value": "90-100%"}, {"measurement": "finding in carcinogenicity study", "setting": "[4]", "value": "hepatocellular neoplasia"}, {"measurement": "chemical stability compared with omeprazole", "setting": "[5]", "value": "more chemically stable"}, {"measurement": "intravenous dose required to reduce endogenous acid secretion by 50%", "setting": "[6]; intravenous", "value": "1 to 3", "unit": "µmol/kg"}, {"measurement": "oral dose required to reduce endogenous acid secretion by 50%", "setting": "[6]; oral", "value": "1 to 3", "unit": "µmol/kg"}, {"measurement": "effective dose inhibiting exogenously stimulated acid secretion", "setting": "[7]", "value": "less than 5 μmole/kg"}, {"measurement": "inhibition of hepatic drug metabolizing enzyme systems compared to omeprazole", "setting": "[8]", "value": "weaker inhibitor"}, {"measurement": "fasting serum gastrin levels", "setting": "[9]", "value": "significantly elevated"}, {"measurement": "oral LD50", "setting": "[10]; in vivo, po", "value": "> 2,467 μmol/kg"}, {"measurement": "intravenous LD50", "setting": "[10]; intravenous", "value": 632, "unit": "µmol/kg"}, {"measurement": "intravenous LD50", "setting": "[11]; mice, intravenous", "value": 975, "unit": "µmol/kg"}, {"measurement": "oral LD50", "setting": "[11]; mouse, in vivo, po", "value": "1,893 μmol/kg"}]}, {"smiles": "COc1ccnc(C[S+]([O-])c2nc3ccc(OC(F)F)cc3[nH]2)c1OC", "note": "(single isomer, unassigned; (+)) [(+) pantoprazole, (+) isomer of 5-(difluoromethoxy)-2-[[3,4-dimethoxy-2-pyridinyl)methyl]sulfinyl]-1H-benzimidazole]", "values": [{"measurement": "PKa", "setting": "[12]", "value": 8.2}]}, {"smiles": "CC(C)NC[C@H](O)COc1cccc2ccccc12", "note": "[L-form of propranolol, propranolol]", "values": [{"measurement": "potency relative to the D-enantiomer", "setting": "beta-adrenergic", "value": 100, "unit": "times"}]}]}
